Source: patent publication US20090062369A1, “USE OF SECRETORY PHOSPHOLIPASE A2 (SPLA2) INHIBITORS TO DECREASE SPLA2 LEVELS” (priority 2007, published 2009)

Tested on: serum sPLA2
Experiment: Effect of twice-a-day oral A-002 on serum sPLA2 levels in subjects with stable coronary artery disease (Example 6)
Type: in vivo, human
Experimental: The protocol for preparing standard curve, test, and quality control samples for use in the assay disclosed herein is set forth in Example 5. Samples are prepared according to this protocol, then loaded in duplicate onto a plate (Cayman catalog no. 485002 or equivalent) that has been pre-coated with a monoclonal sPLA2 antibody (“capture antibody”) that specifically binds sPLA2. In certain embodiments, the capture antibody may interact with a specific form of sPLA2, such as for example sPLA2 type IIA.
sPLA2 acetylcholinesterase:Fab′ conjugate (AChE:Fab′) (“conjugate”) (Cayman catalog no. 485000 or equivalent) is reconstituted in EIA buffer (Cayman catalog no. 400060 or equivalent). Cayman EIA buffer is 1M phosphate, pH 7.0, 1% BSA, 4M NaCl, 10 mM EDTA, and 0.1% sodium azide. Reconstituted conjugate is added to each well of the plate. The conjugate binds a different sPLA2 epitope than the capture antibody, allowing the capture antibody and the conjugate to form a “sandwich” that is immobilized on the plate. Excess reagents are washed away, and the plate is covered and incubated overnight at 2-8° C.
Prior to development, the wells are washed five to six times with wash buffer (Cayman catalog no. 400062 or equivalent). To develop the plate, Ellman's Reagent (Cayman catalog no. 400050 or equivalent) is reconstituted in water and added to each well according to manufacturer instructions. The reconstituted Ellman's Reagent must be used the same day it is prepared because it is unstable. Ellman's Reagent contains an AChE substrate. Specifically, Ellman's Reagent contains acetylthiocholine and 5,5′-dithio-bis-(2-nitrobenzoic acid). Hydrolysis of acetylthiocholine by acetylcholinesterase produces thiocholine, which reacts with 5,5′-dithio-bis-(2-nitrobenzoic acid) to produce 5-thio-2-nitrobenzoic acid. 5-thio-2-nitrobenzoic acid has a strong absorbance at 412 nm. The intensity of absorbance at this wavelength is directly proportional to the concentration of bound conjugate, which is in turn is directly proportional to the concentration of sPLA2 present (Absorbance a [AChE:Fab′ conjugate] α [sPLA2]). During the development step, the plate is shaken, preferably in the dark. In certain embodiments the development time for the assay is 0.5 to 3 hours, preferably 1 to 1.5 hours. At the end of the development period, the high sPLA2 standards should have greater yellow color development than the zero standards. Absorbance of each well is measured at 400-420 nm using a micro-well plate reader. In certain embodiments, absorbance is measured at about 405 nm.
Absorbance readings for duplicate wells are averaged, and the relative standard deviation and % CV are calculated. Standard curve data are used to generate a four parameter curve, and quality control and test samples are measured against the appropriate standard curve (i.e., the standard curve with the same serum content). In order for a test to be considered valid, variation between duplicate wells should be no more than about 25%, and negative controls (blanks) for each standard curve should have a mean absorbance of less than about 0.3.
The method disclosed herein for measuring sPLA2 levels in serum was utilized to determine the effect of administering certain sPLA2 inhibitors on sPLA2 levels in 84 human subjects. The subjects included 24 subjects with diabetes, 32 subjects with metabolic syndrome, and 75 subjects receiving statin treatment. Subjects were administered the sPLA2 inhibitor A-002, a prodrug form of A-001, twice a day at varying dosages from 50 to 500 mg. The structures of A-002and A-001 are set forth below. At two weeks and four weeks after the first administration, sPLA2 levels were measured and compared to pre-administration baseline levels.
84 subjects with stable coronary artery disease were randomized to receive placebo or A-002 via oral administration twice a day over a four week administration period. […]

[1] = 50 mg, diabetes subgroup of ITT population
[2] = 50 mg, non-diabetes subgroup of ITT population
[3] = 50 mg, statin subgroup of ITT population
[4] = 100 mg, diabetes subgroup of ITT population
[5] = 100 mg, non-diabetes subgroup of ITT population
[6] = 100 mg, statin subgroup of ITT population

**Q.** Which results are given for `CCc1c(C(=O)C(N)=O)c2c(OCC(=O)OC)cccc2n1Cc1ccccc1` [A-002, [[3-(2-Amino-1,2-dioxoethyl)-2-ethyl-1-(phenylmethyl)-1H-indol-4-yl]oxy]acetic acid methyl ester]?
**A.** sPLA2 Change from baseline at week 2, Mean (50 mg, ITT population): -2.74 ng/mL; sPLA2 Change from baseline at week 2, Median (50 mg, ITT population): -2.60 ng/mL; sPLA2 Change from baseline at week 2, Range (50 mg, ITT population): -5.30 to -0.60 ng/mL; sPLA2 Change from baseline at week 4, Mean (50 mg, ITT population): -2.50 ng/mL; sPLA2 Change from baseline at week 4, Median (50 mg, ITT population): -2.15 ng/mL; sPLA2 Change from baseline at week 4, Range (50 mg, ITT population): -6.40 to -0.60 ng/mL; sPLA2 level, Baseline, Mean (50 mg, ITT population): 3.24 ng/mL; sPLA2 level, Baseline, Median (50 mg, ITT population): 2.65 ng/mL; sPLA2 level, Baseline, Range (50 mg, ITT population): 0.80 to 8.80 ng/mL; sPLA2 level, Week 2, Mean (50 mg, ITT population): 0.89 ng/mL; sPLA2 level, Week 2, Median (50 mg, ITT population): 0.45 ng/mL; sPLA2 level, Week 2, Range (50 mg, ITT population): 0.20 to 4.00 ng/mL; sPLA2 level, Week 4, Mean (50 mg, ITT population): 0.85 ng/mL; sPLA2 level, Week 4, Median (50 mg, ITT population): 0.70 ng/mL; sPLA2 level, Week 4, Range (50 mg, ITT population): 0.10 to 2.40 ng/mL; sPLA2 Change from baseline at week 2, Mean [1]: -2.05 ng/mL; sPLA2 Change from baseline at week 2, Median [1]: -2.45 ng/mL; sPLA2 Change from baseline at week 2, Range [1]: -2.70 to -0.60 ng/mL; sPLA2 Change from baseline at week 4, Mean [1]: -1.76 ng/mL; sPLA2 Change from baseline at week 4, Median [1]: -1.50 ng/mL; sPLA2 Change from baseline at week 4, Range [1]: -3.20 to -0.60 ng/mL; sPLA2 level, Baseline, Mean [1]: 2.45 ng/mL; sPLA2 level, Baseline, Median [1]: 2.65 ng/mL; sPLA2 level, Baseline, Range [1]: 0.80 to 3.80 ng/mL; sPLA2 level, Week 2, Mean [1]: 0.55 ng/mL; sPLA2 level, Week 2, Median [1]: 0.45 ng/mL; sPLA2 level, Week 2, Range [1]: 0.20 to 1.10 ng/mL; sPLA2 level, Week 4, Mean [1]: 0.66 ng/mL; sPLA2 level, Week 4, Median [1]: 0.60 ng/mL; sPLA2 level, Week 4, Range [1]: 0.20 to 1.20 ng/mL; sPLA2 Change from baseline at week 2, Mean [2]: -3.09 ng/mL; sPLA2 Change from baseline at week 2, Median [2]: -3.05 ng/mL; sPLA2 Change from baseline at week 2, Range [2]: -5.30 to -0.70 ng/mL; sPLA2 Change from baseline at week 4, Mean [2]: -3.03 ng/mL; sPLA2 Change from baseline at week 4, Median [2]: -2.80 ng/mL; sPLA2 Change from baseline at week 4, Range [2]: -6.40 to -0.80 ng/mL; sPLA2 level, Baseline, Mean [2]: 3.72 ng/mL; sPLA2 level, Baseline, Median [2]: 3.20 ng/mL; sPLA2 level, Baseline, Range [2]: 1.30 to 8.80 ng/mL; sPLA2 level, Week 2, Mean [2]: 1.06 ng/mL; sPLA2 level, Week 2, Median [2]: 0.06 ng/mL; sPLA2 level, Week 2, Range [2]: 0.20 to 4.00 ng/mL; sPLA2 level, Week 4, Mean [2]: 0.96 ng/mL; sPLA2 level, Week 4, Median [2]: 0.75 ng/mL; sPLA2 level, Week 4, Range [2]: 0.10 to 2.40 ng/mL; sPLA2 Change from baseline at week 2, Mean [3]: -2.74 ng/mL; sPLA2 Change from baseline at week 2, Median [3]: -2.60 ng/mL; sPLA2 Change from baseline at week 2, Range [3]: -5.30 to -0.60 ng/mL; sPLA2 Change from baseline at week 4, Mean [3]: -2.50 ng/mL; sPLA2 Change from baseline at week 4, Median [3]: -2.15 ng/mL; sPLA2 Change from baseline at week 4, Range [3]: -6.40 to -0.60 ng/mL; sPLA2 level, Baseline, Mean [3]: 3.34 ng/mL; sPLA2 level, Baseline, Median [3]: 2.70 ng/mL; sPLA2 level, Baseline, Range [3]: 0.80 to 8.80 ng/mL; sPLA2 level, Week 2, Mean [3]: 0.89 ng/mL; sPLA2 level, Week 2, Median [3]: 0.45 ng/mL; sPLA2 level, Week 2, Range [3]: 0.20 to 4.00 ng/mL; sPLA2 level, Week 4, Mean [3]: 0.85 ng/mL; sPLA2 level, Week 4, Median [3]: 0.70 ng/mL; sPLA2 level, Week 4, Range [3]: 0.10 to 2.40 ng/mL; sPLA2 Change from baseline at week 2, Mean (100 mg, ITT population): -1.81 ng/mL; sPLA2 Change from baseline at week 2, Median (100 mg, ITT population): -1.85 ng/mL; sPLA2 Change from baseline at week 2, Range (100 mg, ITT population): −3.70 to +2.85 ng/ml; sPLA2 Change from baseline at week 4, Mean (100 mg, ITT population): -2.55 ng/mL; sPLA2 Change from baseline at week 4, Median (100 mg, ITT population): -2.50 ng/mL; sPLA2 Change from baseline at week 4, Range (100 mg, ITT population): -5.70 to 0.00 ng/mL; sPLA2 level, Baseline, Mean (100 mg, ITT population): 2.86 ng/mL; sPLA2 level, Baseline, Median (100 mg, ITT population): 2.95 ng/mL; sPLA2 level, Baseline, Range (100 mg, ITT population): 0.05 to 6.00 ng/mL; sPLA2 level, Week 2, Mean (100 mg, ITT population): 0.68 ng/mL; sPLA2 level, Week 2, Median (100 mg, ITT population): 0.45 ng/mL; sPLA2 level, Week 2, Range (100 mg, ITT population): 0.05 to 2.90 ng/mL; sPLA2 level, Week 4, Mean (100 mg, ITT population): 0.49 ng/mL; sPLA2 level, Week 4, Median (100 mg, ITT population): 0.50 ng/mL; sPLA2 level, Week 4, Range (100 mg, ITT population): 0.05 to 1.10 ng/mL; sPLA2 Change from baseline at week 2, Mean [4]: -1.11 ng/mL; sPLA2 Change from baseline at week 2, Median [4]: -1.80 ng/mL; sPLA2 Change from baseline at week 2, Range [4]: −3.00 to +2.85 ng/ml; sPLA2 Change from baseline at week 4, Mean [4]: -2.30 ng/mL; sPLA2 Change from baseline at week 4, Median [4]: -1.80 ng/mL; sPLA2 Change from baseline at week 4, Range [4]: -5.70 to 0.00 ng/mL; sPLA2 level, Baseline, Mean [4]: 2.78 ng/mL; sPLA2 level, Baseline, Median [4]: 2.50 ng/mL; sPLA2 level, Baseline, Range [4]: 0.05 to 6.00 ng/mL; sPLA2 level, Week 2, Mean [4]: 1.02 ng/mL; sPLA2 level, Week 2, Median [4]: 0.50 ng/mL; sPLA2 level, Week 2, Range [4]: 0.40 to 2.90 ng/mL; sPLA2 level, Week 4, Mean [4]: 0.48 ng/mL; sPLA2 level, Week 4, Median [4]: 0.40 ng/mL; sPLA2 level, Week 4, Range [4]: 0.05 to 1.10 ng/mL; sPLA2 Change from baseline at week 2, Mean [5]: -2.21 ng/mL; sPLA2 Change from baseline at week 2, Median [5]: -2.40 ng/mL; sPLA2 Change from baseline at week 2, Range [5]: -3.70 to -0.40 ng/mL; sPLA2 Change from baseline at week 4, Mean [5]: -2.76 ng/mL; sPLA2 Change from baseline at week 4, Median [5]: -2.60 ng/mL; sPLA2 Change from baseline at week 4, Range [5]: -4.40 to -0.90 ng/mL; sPLA2 level, Baseline, Mean [5]: 2.91 ng/mL; sPLA2 level, Baseline, Median [5]: 3.20 ng/mL; sPLA2 level, Baseline, Range [5]: 1.00 to 4.90 ng/mL; sPLA2 level, Week 2, Mean [5]: 0.48 ng/mL; sPLA2 level, Week 2, Median [5]: 0.30 ng/mL; sPLA2 level, Week 2, Range [5]: 0.05 to 1.20 ng/mL; sPLA2 level, Week 4, Mean [5]: 0.51 ng/mL; sPLA2 level, Week 4, Median [5]: 0.60 ng/mL; sPLA2 level, Week 4, Range [5]: 0.05 to 1.00 ng/mL; sPLA2 Change from baseline at week 2, Mean [6]: -1.81 ng/mL; sPLA2 Change from baseline at week 2, Median [6]: -1.80 ng/mL; sPLA2 Change from baseline at week 2, Range [6]: −3.70 to +2.85 ng/ml; sPLA2 Change from baseline at week 4, Mean [6]: -2.46 ng/mL; sPLA2 Change from baseline at week 4, Median [6]: -2.50 ng/mL
